Results as given in ChEMBL document CHEMBL6074694, “4-Oxo-β-lactams as Covalent Inhibitors of the Mitochondrial Intramembrane Protease PARL” (ACS Med Chem Lett, 2024).
Active and inactive are the calls of the source. The calls are words filed in the database; no cut-off is given here.

Tests used:
[1] = molecular target: T1, Presenilin-associated rhomboid-like protein, mitochondrial (Homo sapiens, UniProt Q9H300); experiment: Inhibition of PARL (unknown origin) using Ac-RRRAVFKLA-aminomethyl coumarin as substrate preincubated for 30 mins followed by substrate addition and measured after 20 mins by plate reader assay
T1 sequence (Q9H300 whole entry): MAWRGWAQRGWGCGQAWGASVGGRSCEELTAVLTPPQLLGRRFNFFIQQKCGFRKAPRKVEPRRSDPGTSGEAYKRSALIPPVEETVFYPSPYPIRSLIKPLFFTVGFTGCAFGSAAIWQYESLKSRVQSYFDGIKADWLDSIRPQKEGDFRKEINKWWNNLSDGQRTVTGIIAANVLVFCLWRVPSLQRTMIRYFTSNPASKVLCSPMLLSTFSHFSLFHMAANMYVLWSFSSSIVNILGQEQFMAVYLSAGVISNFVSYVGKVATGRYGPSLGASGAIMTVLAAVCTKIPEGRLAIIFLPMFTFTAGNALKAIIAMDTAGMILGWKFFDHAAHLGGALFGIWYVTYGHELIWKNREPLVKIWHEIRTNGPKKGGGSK

[2] = Inhibition of recombinant human RHBDL2 using Ac-PVAKA-7-amino-4-methylcoumarin-3-(N-octyl)-acetamide as substrate preincubated for 30 mins followed by substrate addition and measured after 20 mins by plate reader assay
HEK293-T-REx = experiment: (§1) Inhibition of FLAG-tagged PARL (unknown origin) overexpressed in HEK293-T-REx cells assessed as reduction in substrate cleavage using PGAM5-Myc as substrate incubated for overnight by densitometry assay; assay type: cell-based; details: Homo sapiens
[3] = as §1; assay type: cell-based, Homo sapiens

## CCC1(CC)C(=O)N(c2ccc(CN3CCN(c4cc(C)nc5ccc(Br)cc45)CC3)cc2)C1=O
[1]
  IC50: 480 nM

## CCC1(CC)C(=O)N(c2ccc(CN3CCN(c4ccc(Br)cc4)CC3)cc2)C1=O
[1]
  IC50: 490 nM
[2]
  IC50: 21000 nM

## CCC1(CC)C(=O)N(c2ccc(CN3CCN(Cc4ccc(Br)cc4)CC3)cc2)C1=O
[1]
  IC50: 1430 nM
[2]
  IC50: 1900 nM

## CCC1(CC)C(=O)N(c2ccc(CN3CCN(C(c4ccc(F)cc4)c4ccc(F)cc4)CC3)cc2)C1=O
[1]
  IC50: 2600 nM

## CCC1(CC)C(=O)N(c2cccc(CN3CCN(Cc4ccc(Br)cc4)CC3)c2)C1=O
[1]
  IC50: 1000 nM

## CCC1(CC)C(=O)N(c2ccc(CN3CCN(c4ccnc5ccc(Br)cc45)CC3)cc2)C1=O
[1]
  IC50: 260 nM
[2]
  IC50: 35000 nM

## CCC1(CC)C(=O)N(c2cccc(CN3CCN(c4ccc(Br)cc4)CC3)c2)C1=O
[1]
  IC50: 890 nM

## CCC1(CC)C(=O)N(c2cccc(CN3CCN(Cc4ccc(OC)cc4)CC3)c2)C1=O
[1]
  IC50: 1930 nM

## CCC1(CC)C(=O)N(c2ccc(CN3CCN(c4ccc(OC)cc4)CC3)cc2)C1=O
[1]
  IC50: 380 nM

## CCC1(CC)C(=O)N(c2ccc(CN3CCc4cc5c(cc4C3)OCO5)cc2)C1=O
[1]
  IC50: 560 nM

## CCC1(Cc2ccccc2)C(=O)N(OS(=O)(=O)c2ccc(C)cc2)C1=O
HEK293-T-REx
  inhibition: inactive

## CCC1(CC)C(=O)N(Cc2ccc(C(=O)OCc3ccccc3)cc2)C1=O
[3]
  EC50: 220 nM
[1]
  IC50: 160 nM

## CCC1(CC)C(=O)N(c2ccc(CN(Cc3ccccc3)Cc3ccccc3)cc2)C1=O
[3]
  EC50: 300 nM
[1]
  IC50: 150 nM
